Laboratory results: patent publication US12661362B2, “Methods for the prevention and treatment of hearing loss” (Ting Therapeutics LLC, priority 2020, dated 2026)

Tests used:
[1] = test system: FVB/NJ mice; assay: Safety monitoring of drugs IP in FVB/NJ mice, with or without Cisplatin; format: in vivo, mouse
Protocol: To investigate the drugs' effects on mammalian auditory function in vivo, we first treated 5-7 weeks old FVB/NJ mice with […] drug candidates: Niclosamide (10 mg/kg/day), Ingenol (0.3 mg/kg/day), Elesclomol (5 mg/kg/day), for 4 consecutive days (IP) to monitor safety of the drugs. All tested doses were determined based on previous published data showing maximum non-toxic dose through intraperitoneal (IP) injection.
Baseline auditory brainstem response (ABR) were measured on 16 mice divided in 3 groups receiving Ingenol, Elesclomol, and Niclosamide. The mice received the drug doses described above, then on day 2 of drug injection mice also received 30 mg/kg Cisplatin (IP; 4 mice per group).

[2] = test system: FVB/NJ mice; assay: Cisplatin-induced hearing loss in FVB/NJ mice (ABR, DPOAE, wave-1, hair cell count); format: in vivo, mouse
Description: Now referring to FIGS. 4A-4F Niclosamide attenuates Cisplatin-induced hearing loss in FVB/NJ mice. Mice: Procedures used with mice were approved by the Institutional Animal Care and Use Committee (IACUC) at the Creighton University. For functional assessments including Cisplatin and noise exposure experiments 5 to 7-week-old FVB/NJ mice obtained from Jackson Laboratory (Bar Harbor, ME, USA) were used, with a mix of males and females across experiments. For the Cisplatin and noise studies, FVB/NJ mice were treated with 10 mg/kg Niclosamide, through intraperitoneal (IP) injection. Niclosamide, was dissolved in 1% DMSO in normal saline (0.9% NaCl solution) and vortexed multiple times before injections. Treatment started 24 hours before the Cisplatin or noise-exposure and continued once daily for 3 more days. Cisplatin was injected IP at 30 mg/kg divided into 2 doses per day. Animals were given 1 mL warm sterile normal saline subcutaneously twice a day before and for 7 days after Cisplatin treatment to prevent dehydration.
Now referring to FIG. 4A, ABR tests were performed 2-3 days before Cisplatin exposure, and 5 days post-Cisplatin exposure. The experimental groups included: Cisplatin and 1% DMSO, Cisplatin and Niclosamide, Niclosamide, only, and age-matched controls receiving normal saline. For the noise experiment, auditory tests were performed 2-3 days prior to noise exposure (paradigm described below), at post-exposure day-1 to monitor temporary threshold shift (TTS) and at post-exposure day-14 to monitor permanent threshold shift (PTS). Experimental groups included: noise-exposure and normal saline, noise-exposure and Niclosamide, Niclosamide-only, and age-matched controls. Following the final auditory function measurements, mice were euthanized, and cochleae were collected for morphological assessment. Based on the results of FVB/NJ ABR/DPOAE threshold variances and power analysis, ten FVB/NJ mice per group (5 of each sex) were used in this study.
Now referring to FIG. 4B measurement of the distortion products otoacoustic emission (DPOAE) thresholds at frequencies ranging from 8 to 40 kHz in cisplatin, niclosamide, control, and cisplatin-niclosamide treated-mice.
Now referring to FIG. 4C-4D, mean wave-1 amplitudes at 8, 16, 32, and 40 kHz was measured in the control and Niclosamide-treated mice before Cisplatin injection and at Day 5 post-Cisplatin injection. The ABR wave-1 amplitude represents the summed activity of the cochlear nerve. Amplitudes from the 85 dB SPL stimuli were compared between groups in the baseline ABR measurements using a two-factor ANOVA (group x frequency), and no group differences were detected (P>0.05).
Now referring to FIGS. […], representative samples of the mouse HCs at 32 kHz, the most protected frequency region shown by ABR measurement (FIG. 4E). […] Niclosamide protects NMDA-induced hair cell loss in zebrafish. Application of the N-methyl-d-aspartate (NMDA) to zebrafish neuromast HCs has also been used to mimic glutamate excitotoxicity associated with noise exposure (Katie S. Kindt and Lavinia Sheets, 2018). The results of the HC count following exposure of zebrafish to 300 μM NMDA led to hair-cell loss.

[3] = test system: SHP77; assay: Survival of SHP77 cells with or without Cisplatin and Niclosamide; format: cell-based; conditions: 10 nM
Protocol: Now referring to FIG. 8, In vitro model of […] incubated with or without Cisplatin and 10 nM of Niclosamide. Cells were maintained in culture with the aid of Matrigel as previously described in Kelley and Driver, Curr. Protoc. Neurosci. Ch.(4); Unit(4); 34.1-10 (2010). After cells had been in culture for 1 d, growth medium DMEM (12430-054; GIB CO Life Technologies, with 1% FBS [16000-044; GIB CO Life Technologies] and 50 μg/ml ampicillin) with or without test compounds may be added for preincubation for 1 hr. at 37° C. in 5% Co2, and may be followed by incubation with 50 μM Cisplatin (479306; Sigma-Aldrich) with or without the test compound in growth medium for 24 hr. at 37° C. A Cisplatin concentration of 50 μM may be used for the explant assay due to its consistent showing of decreases outer hair cells by about −40% in the mouse cochlea after 24 hours. Cochlea may be fixed in 4% PFA and stained for actin with Alex Fluor 568 phalloidin to determine the viability of the HCs. Cochlea may also be stained by DAPI, FM1-43 dye uptake, and immunohistochemical staining for known HC markers (including parvalbumin and myosin 7a. Cochlea may be imaged by confocal microscopy. Two 160-μm regions from middle turns may be photographed, and the number of intact HCs can be counted.

[4] = HPLC analysis of interaction between Niclosamide and Cisplatin in vitro; format: physicochemical; conditions: ratios 1:1 and 1:10, 37° C.
Protocol: A simple explanation of Niclosamide's protection against CIHL is that it directly inactivates Cisplatin, similar to several otoprotectants in clinical trials (STS, ebselen, etc.). To investigate any possible interaction between Niclosamide and Cisplatin, we developed an HPLC method in vitro. The method may use the following: HPLC: Shimadzu Prominence-i LC-2030C, column: Agilent Eclipse Plus C18, PN-959961-902, 5% ACN, 95% water: 0-2 min; continuous increase of ACN to 95%: 2-12 min; hold at 95% ACN: 12-17 min; continuous decrease of ACN to 5%: 17-20 min, flow rate: 1 mL/min; Temperature 37° C., run time: 20 min. Additional parts of the method may use a stock solution of 1 mg/ml prepared in suitable solvent and mixed to create a ratio of cisplatin and niclosamide at 1:1 and 1:10 in the final injecting solution, along with the pure cisplatin and niclosamide. […] Our in vitro results are consistent with its synergistic interaction with Cisplatin in RCC xenograft models and its protection against noise injury.

[5] = 20 mg/kg/day IP, 4 consecutive days

Question: Which clinical signs [1, 5] does the source give for `O=C(Nc1ccc([N+](=O)[O-])cc1Cl)c1cc(Cl)ccc1O` [Niclosamide, 5-chloro-N-(2-chloro-4-nitrophenyl)-2-hydroxy-benzamide] here?
Answer: sign of pain and distress including mouse hunch

Question: And the weight loss [1, 5]?
Answer: 20-30%

Question: And the “weight loss, pain and distress” value ([1]; Niclosamide 10, Ingenol 0.3, Elesclomol 5 mg/kg/day IP, 4 consecutive days)?
Answer: None of the mice showed reduced weight loss or signs of pain and distress

Question: And the “general toxicity versus Cisplatin alone” value ([1]; combination with Cisplatin 30 mg/kg single injection)?
Answer: no general toxicity

Question: What about the weight loss ([1]; drug IP daily plus 30 mg/kg Cisplatin IP on day 2) of the same compound?
Answer: less than 10%

Question: And the “weight loss or abnormal behavior” value ([1]; maximum IP doses approved by IACUC)?
Answer: no weight loss or abnormal behavior

Question: And the survival ([1]; plus 30 mg/kg Cisplatin, through day 5 post-Cisplatin injection)?
Answer: all survived

Question: And the “ABR threshold shifts versus Cisplatin-only mice” value ([2]; 8, 12 and 32 kHz, 10 mg/kg IP, Cisplatin 30 mg/kg)?
Answer: significantly reduced ABR threshold shifts

Question: And the “DPOAE threshold shifts versus Cisplatin-only mice” value ([2]; 16 and 32 kHz, 10 mg/kg IP, Day 5 post-Cisplatin)?
Answer: significantly reduced DPOAE threshold shifts

Question: What about the “HC survival versus Cisplatin group” value ([2]; 30 kHz region) of the same compound?
Answer: more HC survival

Question: And the “outer hair cell quantification, protection against Cisplatin-induced hair cell loss” value ([2]; 32 kHz region, cotreatment)?
Answer: full protection

Question: And the “ABR wave-1 amplitudes versus Cisplatin only group” value ([2]; all tested frequencies at 85 dB SPL, Day 5 post-Cisplatin)?
Answer: higher amplitudes

Question: And the “effect on Cisplatin-tumor killing activity” value [3]?
Answer: did not affect Cisplatin-tumor killing activity

Question: And the “chemical interaction with Cisplatin (third HPLC peak)” value [4]?
Answer: no interaction between Niclosamide and Cisplatin
